Measurements published in patent US9624211B2, “Anti-cancer compounds” (Board of Regents, The University of Texas System, priority 2013, dated 2017).
One block for each compound: values may come before it.

Tests used:
[1] = molecular target: T1, Skp1/Skp2 binding interaction (Homo sapiens, UniProt Q13309); assay: In vitro Skp2-Skp1 binding assay (GST pull-down); settings: amount of intact Skp1/Skp2 remaining after treatment, quantified on western blot/images
T1 construct: made in house; host or cells: GST-Skp1: E. coli BL21; Skp2: in vitro translation
Description: For in vitro GST-Skp1 and Skp2 interaction, GST-Skp1 proteins purified from the bacterial lysates of BL21 competent cells transformed with pGEX-4X1-Skp1 using the Glutathione-Agarose beads according to the manufacturer's standard procedures. The GST-Skp1 proteins bound to glutathione Sepharose beads (Amersham Biosciences) were then incubated with the in vitro translated [35^S]-Skp2 for 2 hours at 4° C. in the interaction buffer with or without compound #25 (20 mM HEPES, PH 7.9, 150 mM KCl. 5 mM EDTA, 0.5 mM DTT, 0.1% (v/v) Nonidet p-40, 0.1% (w/v) BSA, 1 mM PMSF, and 10% Glycerol), washed by the NETN buffer (20 mM Tris, pH 8.0, 100 mM NaCl, 6 mM MgCl2, 1 mM EDTA, 0.5% Nonidet P-40, 1 mM DTT, 8% glycerol, 1 mM PMSF) 4 times, and subjected to 8% SDS-PAGE, followed by autoradiography.
Below are the original lead compound and 11 similar compounds that were tested for their ability to block the Skp1/Skp2 binding interaction in an in vitro assay. The quantification was made on western blot/images, and the percentages represent the amount of intact Skp1/Skp2 remaining after treatment. In vitro binding assays were performed. For in vitro GST-Skp1 and Skp2 interaction, GST-Skp1 proteins purified from the bacterial lysates of BL21 competent cells transformed with pGEX-4X1-Skp1 using the Glutathione-Agarose beads were performed according to the manufacturer's standard procedures. The GST-Skp1 proteins bound to glutathione Sepharose beads (Amersham Biosciences) were then incubated with the in vitro translated [35^S]-Skp2 for 2 hours at 4° C. in the interaction buffer with or without lead compound and 11 similar compounds (20 mM HEPES, PH 7.9, 150 mM KCl. 5 mM EDTA, 0.5 mM DTT, 0.1% (v/v) Nonidet p-40, 0.1% (w/v) BSA, 1 mM PMSF, and 10% Glycerol), washed by the NETN buffer (20 mM Tris, pH 8.0, 100 mM NaCl, 6 mM MgCl2, 1 mM EDTA, 0.5% Nonidet P-40, 1 mM DTT, 8% glycerol, 1 mM PMSF) 4 times, and subjected to 8% SDS-PAGE, followed by autoradiography. The data presented in Table 1 below was obtained using the Skp1/Skp2 binding affinity assay. The quantification percentage results listed below are based on the western blot results.

[2] = molecular target: T2, FBW7 (Homo sapiens, UniProt Q969H0); assay: In vivo ubiquitination assay, FBW7 substrates; type: cell-based; settings: in the presence of proteasome inhibitor
T2 construct: expressed in transfected cells; host or cells: 293T
Description: In vivo and in vitro ubiquitination assays were performed as described with modification (Lin et al., 2009; Yang et al., 2009). For in vitro ubiquitination assay, recombinant GST-Akt proteins were expressed, purified and eluted from the bacterial lysates of BL21 competent cells. Flag-Skp2 SCF complex were expressed in 293T cells, immunoprecipitated by anti-Flag antibody, and eluted from Protein A/G beads using Flag peptides according to manufacturers' standard procedures. Purified GST-Akt and Flag-SCF proteins were incubated for 3 h at 37° C. in the absence and presence of Skp2 inhibitor. After incubation, protein mixtures were diluted in E1A Buffer and the supernatant fluid was precleared with Protein A/G beads for 1 h, and immunoprecipitated overnight with anti-Flag antibody, after which Protein A/G beads were added for an additional 1 h. Beads were washed 4 times with E1A Buffer. Proteins were eluted in SDS-sample buffer and subjected to immunoblotting analysis. For in vivo ubiquitination assay, 293T cells were transfected with the indicated plasmids and cultured in the absence or presence of Skp2 inhibitor for 48 h. 6 h before harvest, cells were cultured in the presence of MG132. After cell harvest, cells were lysed by the denatured buffer (6M guanidine-HCl, 0.1M Na2HPO4/NaH2PO4, 10 mM imidazole). […]

[3] = tested on: p27 and p21 protein expression; assay: Immunoblotting of SCF substrates in prostate cancer cells; type: cell-based
Source text: Cells were lysed with RIPA buffer in the presence of protease inhibitor cocktail (Roche). The following antibodies were used for immunoblotting analysis: anti-Skp2 (Invitrogen), anti-Xpress (Invitrogen), anti-p27 (BD transduction laboratories), anti-p21 (Santa Cruz), anti-β-actin (Sigma), anti-α-tubulin (Sigma), anti-phospho-Akt (Thr308) (Cell Signaling), anti-phospho-Akt (Ser473) (Cell Signaling), and anti-HA (Convance). For immunohistochemistry, tissues were fixed in 10% formalin and embedded in paraffin in accordance with standard procedures. Sections were stained with anti-Skp2 (Invitrogen), anti-p27 (Epitomics), anti-phosphoAkt (SerS473) (Cell signaling), anti-Glut1 (Abcam), and anti-Ki67 (Abcam). TUNEL staining was performed by using in situ cell death detection kit-POD (Roche).

T1 sequence (Q13309 whole entry): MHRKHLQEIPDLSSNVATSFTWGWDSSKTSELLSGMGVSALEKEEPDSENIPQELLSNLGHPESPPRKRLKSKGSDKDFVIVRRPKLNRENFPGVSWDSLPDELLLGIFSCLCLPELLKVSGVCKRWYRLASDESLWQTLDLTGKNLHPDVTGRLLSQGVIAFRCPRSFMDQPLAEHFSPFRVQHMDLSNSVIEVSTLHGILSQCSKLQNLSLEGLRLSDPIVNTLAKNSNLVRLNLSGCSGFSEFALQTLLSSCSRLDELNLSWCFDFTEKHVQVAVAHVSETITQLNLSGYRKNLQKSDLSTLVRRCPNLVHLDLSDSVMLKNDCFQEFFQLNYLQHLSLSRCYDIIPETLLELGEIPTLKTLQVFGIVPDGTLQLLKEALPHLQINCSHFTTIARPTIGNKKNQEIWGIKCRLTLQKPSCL
T2 sequence (Q969H0 whole entry, species assumed): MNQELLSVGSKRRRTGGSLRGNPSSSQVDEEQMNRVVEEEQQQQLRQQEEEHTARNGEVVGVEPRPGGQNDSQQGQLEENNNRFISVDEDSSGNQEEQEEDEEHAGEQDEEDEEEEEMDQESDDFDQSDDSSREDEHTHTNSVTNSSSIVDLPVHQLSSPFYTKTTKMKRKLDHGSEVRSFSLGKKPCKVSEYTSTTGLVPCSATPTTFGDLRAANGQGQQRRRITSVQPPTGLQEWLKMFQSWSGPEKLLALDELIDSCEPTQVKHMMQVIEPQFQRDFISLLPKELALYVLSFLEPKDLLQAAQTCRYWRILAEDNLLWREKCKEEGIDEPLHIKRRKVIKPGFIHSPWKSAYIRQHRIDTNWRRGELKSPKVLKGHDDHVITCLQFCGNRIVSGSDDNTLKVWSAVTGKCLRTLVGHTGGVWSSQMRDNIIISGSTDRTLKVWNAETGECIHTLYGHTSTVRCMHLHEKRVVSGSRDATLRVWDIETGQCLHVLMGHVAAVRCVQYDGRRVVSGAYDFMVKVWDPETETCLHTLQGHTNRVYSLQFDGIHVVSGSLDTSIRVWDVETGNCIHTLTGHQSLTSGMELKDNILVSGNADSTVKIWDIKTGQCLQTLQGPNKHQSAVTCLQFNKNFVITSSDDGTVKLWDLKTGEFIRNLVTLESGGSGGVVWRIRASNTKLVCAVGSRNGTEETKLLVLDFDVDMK

SMILES: CN(C)Cc1c(O)ccc2cc(-c3nc4ccccc4o3)c(=O)oc12 [compound 820]
Normalized w/ vehicle treatment [1]: 10%

SMILES: CCc1cc2c(=O)c(-c3nc4ccccc4s3)coc2c(CN(C)C)c1O [compound 653]
Normalized w/ vehicle treatment [1]: 8%

SMILES: COc1ccccc1C(=O)Oc1ccc2c(=O)c(-c3nc4ccccc4s3)coc2c1 [compound 837]
Normalized w/ vehicle treatment [1]: 8%

SMILES: Cn1c(-c2cc3ccc(O)c(CN4CCCC4)c3oc2=O)nc2ccccc21 [compound 343]
Normalized w/ vehicle treatment [1]: 35%

SMILES: Cn1c(-c2cc3ccc(O)c(CN4CCCCCC4)c3oc2=O)nc2ccccc21 [compound 580]
Normalized w/ vehicle treatment [1]: 8%

SMILES: NS(=O)(=O)OC[C@@H]1C[C@@H](n2ccc3c(N[C@H]4CCc5ccccc54)ncnc32)C[C@@H]1O [MLN4924, reference compound]
FBW7-mediated ubiquitination (c-Jun, MCL-1) [2]: profoundly attenuated
heat shock protein 27 (Hsp27) expression ([3]; LNCaP prostate cancer cells): induced expression
stabilization/induction of SCF substrates ([3]; Skp2, Fbw7 and β-TrCP substrates, FIGS. 3E and 11A): globally induced

SMILES: Cn1c(-c2cc3ccc(O)c(CN4CCCCC4)c3oc2=O)nc2ccccc21 [compound 435]
Normalized w/ vehicle treatment [1]: 40%

Other lines, results leading:

Normalized w/ vehicle treatment [1]: 75%
SMILES: O=c1c(-c2nc3ccccc3s2)coc2cc(O)ccc12 [compound 684]

Normalized w/ vehicle treatment [1]: 80%
SMILES: O=c1oc2c(CN(CCO)CCO)c(O)ccc2cc1-c1nc2ccccc2s1 [compound 719]

Normalized w/ vehicle treatment [1]: 10%
SMILES: CCc1cc2c(=O)c(-c3nc4ccccc4s3)coc2c(CN2CCOCC2)c1O [compound 354]

Normalized w/ vehicle treatment [1]: 8%
SMILES: Nc1oc2cc(O)ccc2c(=O)c1-c1nc2ccccc2s1 [compound 649]

Normalized w/ vehicle treatment [1]: 100% (no effect)
SMILES: CCc1cc2c(=O)c(-c3nc4ccccc4s3)coc2cc1O [compound 378]
